Assay results taken from patent US20220289794A1, “SYNTHETIC ANTIMICROBIAL PEPTIDES” (priority 2019, published 2022).
Values after ≈ are worked out from the molar mass of the structure shown. Non-standard residues stand in square brackets, D forms with d. Residues, ends and D or L forms follow the SMILES beside them. Dip = N[C@H](C(=O)O)C(c1ccccc1)c1ccccc1; 2Nal = N[C@@H](Cc1ccc2ccccc2c1)C(=O)O; d2Nal = N[C@H](Cc1ccc2ccccc2c1)C(=O)O

Legend:
in vitro = settings: human, fresh human red blood cells (washed), pH 7.4
[1] = tested on: Pseudomonas aeruginosa (ATCC 27883); settings: ATCC 27883
[2] = tested on: Escherichia coli (ATCC 25922); settings: ATCC 25922

| HC50 at 0.5 h (in vitro) [µg/mL] | MIC P. aeruginosa ATCC 27883 [1] [µg/mL] | MIC E. coli ATCC 25922 [2] [µg/mL] | Structure (SMILES) |
| --- | --- | --- | --- |
| 245 | 6.2 (≈ 4.79 µM) | – | N=C(N)NCCC[C@H]1NC(=O)[C@H](C(c2ccccc2)c2ccccc2)NC(=O)[C@H](C(c2ccccc2)c2ccccc2)NC(=O)[C@H](C(c2ccccc2)c2ccccc2)NC(=O)[C@@H](CCCNC(=N)N)NC(=O)[C@@H](CCCNC(=N)N)NC(=O)[C@@H](CCCNC(=N)N)NC1=O [IFX-073, c[arg-arg-arg-arg-Dip-Dip-Dip]] (cyclo([dR][dR][dR][dR][Dip][Dip][Dip])) |
| 200 | 12.5 (≈ 10.3 µM) | – | N=C(N)NCCC[C@@H]1NC(=O)[C@H](CCCNC(=N)N)NC(=O)[C@H](CCCNC(=N)N)NC(=O)[C@H](CCCNC(=N)N)NC(=O)[C@@H](Cc2ccc3ccccc3c2)NC(=O)[C@H](Cc2ccc3ccccc3c2)NC(=O)[C@H](Cc2ccc3ccccc3c2)NC1=O [IFX-074, c[Arg-Arg-Arg-Arg-NaI-NaI-naI]] (cyclo(RRRR[2Nal][2Nal][d2Nal])) |
| 100 | 12.5 (≈ 10.3 µM) | – | N=C(N)NCCC[C@@H]1NC(=O)[C@H](CCCNC(=N)N)NC(=O)[C@H](CCCNC(=N)N)NC(=O)[C@H](Cc2ccc3ccccc3c2)NC(=O)[C@@H](Cc2ccc3ccccc3c2)NC(=O)[C@H](Cc2ccc3ccccc3c2)NC(=O)[C@H](CCCNC(=N)N)NC1=O [IFX-075, c[Arg-Arg-Arg-Arg-NaI-naI-NaI]] (cyclo(RRRR[2Nal][d2Nal][2Nal])) |
| 100 | 12.5 (≈ 10.3 µM) | – | N=C(N)NCCC[C@@H]1NC(=O)[C@H](CCCNC(=N)N)NC(=O)[C@H](Cc2ccc3ccccc3c2)NC(=O)[C@H](Cc2ccc3ccccc3c2)NC(=O)[C@@H](Cc2ccc3ccccc3c2)NC(=O)[C@H](CCCNC(=N)N)NC(=O)[C@H](CCCNC(=N)N)NC1=O [IFX-076, c[Arg-Arg-Arg-Arg-naI-NaI-NaI]] (cyclo(RRRR[d2Nal][2Nal][2Nal])) |
| 100 | 12.5 (≈ 10.3 µM) | – | N=C(N)NCCC[C@@H]1NC(=O)[C@H](Cc2ccc3ccccc3c2)NC(=O)[C@H](Cc2ccc3ccccc3c2)NC(=O)[C@H](Cc2ccc3ccccc3c2)NC(=O)[C@@H](CCCNC(=N)N)NC(=O)[C@H](CCCNC(=N)N)NC(=O)[C@H](CCCNC(=N)N)NC1=O [IFX-077, c[Arg-Arg-Arg-arg-NaI-NaI-NaI]] (cyclo(RRR[dR][2Nal][2Nal][2Nal])) |
| 95 | 12.5 (≈ 10.3 µM) | – | N=C(N)NCCC[C@@H]1NC(=O)[C@H](Cc2ccc3ccccc3c2)NC(=O)[C@H](Cc2ccc3ccccc3c2)NC(=O)[C@H](Cc2ccc3ccccc3c2)NC(=O)[C@H](CCCNC(=N)N)NC(=O)[C@@H](CCCNC(=N)N)NC(=O)[C@H](CCCNC(=N)N)NC1=O [IFX-078, c[Arg-Arg-arg-Arg-NaI-NaI-NaI]] (cyclo(RR[dR]R[2Nal][2Nal][2Nal])) |
| 100 | 12.5 (≈ 10.3 µM) | – | N=C(N)NCCC[C@@H]1NC(=O)[C@H](CCCNC(=N)N)NC(=O)[C@@H](CCCNC(=N)N)NC(=O)[C@H](CCCNC(=N)N)NC(=O)[C@H](Cc2ccc3ccccc3c2)NC(=O)[C@H](Cc2ccc3ccccc3c2)NC(=O)[C@H](Cc2ccc3ccccc3c2)NC1=O [IFX-079, c[Arg-arg-Arg-Arg-NaI-NaI-NaI]] (cyclo(R[dR]RR[2Nal][2Nal][2Nal])) |
| 200 | 12.5 (≈ 10.3 µM) | – | N=C(N)NCCC[C@@H]1NC(=O)[C@H](CCCNC(=N)N)NC(=O)[C@H](CCCNC(=N)N)NC(=O)[C@@H](CCCNC(=N)N)NC(=O)[C@H](Cc2ccc3ccccc3c2)NC(=O)[C@H](Cc2ccc3ccccc3c2)NC(=O)[C@H](Cc2ccc3ccccc3c2)NC1=O [IFX-080, c[arg-Arg-Arg-Arg-NaI-NaI-NaI]] (cyclo([dR]RRR[2Nal][2Nal][2Nal])) |
| 200 | 50 (≈ 41.1 µM) | – | N=C(N)NCCC[C@H]1NC(=O)[C@@H](CCCNC(=N)N)NC(=O)[C@@H](CCCNC(=N)N)NC(=O)[C@@H](Cc2ccc3ccccc3c2)NC(=O)[C@@H](Cc2ccc3ccccc3c2)NC(=O)[C@@H](Cc2ccc3ccccc3c2)NC(=O)[C@@H](CCCNC(=N)N)NC1=O [IFX-081, c[arg-arg-arg-arg-naI-naI-naI]] (cyclo([dR][dR][dR][dR][d2Nal][d2Nal][d2Nal])) |
| 150 | 12.5 (≈ 10.3 µM) | – | N=C(N)NCCC[C@@H]1NC(=O)[C@@H](CCCNC(=N)N)NC(=O)[C@H](CCCNC(=N)N)NC(=O)[C@@H](CCCNC(=N)N)NC(=O)[C@@H](Cc2ccc3ccccc3c2)NC(=O)[C@@H](Cc2ccc3ccccc3c2)NC(=O)[C@@H](Cc2ccc3ccccc3c2)NC1=O [IFX-082, c[arg-Arg-arg-Arg-naI-naI-naI]] (cyclo([dR]R[dR]R[d2Nal][d2Nal][d2Nal])) |
| 170 | 12.5 (≈ 10.3 µM) | – | N=C(N)NCCC[C@@H]1NC(=O)[C@@H](CCCNC(=N)N)NC(=O)[C@H](CCCNC(=N)N)NC(=O)[C@@H](CCCNC(=N)N)NC(=O)[C@@H](Cc2ccc3ccccc3c2)NC(=O)[C@H](Cc2ccc3ccccc3c2)NC(=O)[C@@H](Cc2ccc3ccccc3c2)NC1=O [IFX-083, c[arg-Arg-arg-Arg-naI-NaI-naI]] (cyclo([dR]R[dR]R[d2Nal][2Nal][d2Nal])) |
| 145 | 12.5 (≈ 10.3 µM) | – | N=C(N)NCCC[C@@H]1NC(=O)[C@H](Cc2ccc3ccccc3c2)NC(=O)[C@@H](Cc2ccc3ccccc3c2)NC(=O)[C@H](Cc2ccc3ccccc3c2)NC(=O)[C@@H](CCCNC(=N)N)NC(=O)[C@H](CCCNC(=N)N)NC(=O)[C@@H](CCCNC(=N)N)NC1=O [IFX-085, c[Arg-arg-Arg-arg-NaI-naI-NaI]] (cyclo(R[dR]R[dR][2Nal][d2Nal][2Nal])) |
| 155 | 12.5 (≈ 10.3 µM) | – | N=C(N)NCCC[C@@H]1NC(=O)[C@H](CCCNC(=N)N)NC(=O)[C@H](CCCNC(=N)N)NC(=O)[C@@H](Cc2ccc3ccccc3c2)NC(=O)[C@@H](Cc2ccc3ccccc3c2)NC(=O)[C@@H](Cc2ccc3ccccc3c2)NC(=O)[C@H](CCCNC(=N)N)NC1=O [IFX-086, c[Arg-Arg-Arg-Arg-naI-naI-naI]] (cyclo(RRRR[d2Nal][d2Nal][d2Nal])) |
| 145 | 12.5 (≈ 10.3 µM) | – | N=C(N)NCCC[C@H]1NC(=O)[C@H](Cc2ccc3ccccc3c2)NC(=O)[C@H](Cc2ccc3ccccc3c2)NC(=O)[C@H](Cc2ccc3ccccc3c2)NC(=O)[C@@H](CCCNC(=N)N)NC(=O)[C@@H](CCCNC(=N)N)NC(=O)[C@@H](CCCNC(=N)N)NC1=O [IFX-087, c[arg-arg-arg-arg-NaI-NaI-NaI]] (cyclo([dR][dR][dR][dR][2Nal][2Nal][2Nal])) |
| 480 | 32 (≈ 26.5 µM) | 32 (≈ 26.5 µM) | N=C(N)NCCC[C@@H]1NC(=O)[C@H](CCCNC(=N)N)NC(=O)[C@@H](Cc2ccc3ccccc3c2)NC(=O)[C@@H](Cc2ccc3ccccc3c2)NC(=O)[C@H](Cc2c[nH]c3ccccc23)NC(=O)[C@@H](CCCNC(=N)N)NC(=O)[C@@H](CCCNC(=N)N)NC1=O [IFX-116, c[Arg-Arg-arg-arg-Trp-naI-naI]] (cyclo(RR[dR][dR]W[d2Nal][d2Nal])) |
| 190 | 32 (≈ 26.5 µM) | 32 (≈ 26.5 µM) | N=C(N)NCCC[C@@H]1NC(=O)[C@H](CCCNC(=N)N)NC(=O)[C@@H](CCCNC(=N)N)NC(=O)[C@@H](CCCNC(=N)N)NC(=O)[C@@H](Cc2ccc3ccccc3c2)NC(=O)[C@@H](Cc2ccc3ccccc3c2)NC(=O)[C@H](Cc2c[nH]c3ccccc23)NC1=O [IFX-117, c[arg-arg-Arg-Arg-Trp-naI-naI]] (cyclo([dR][dR]RRW[d2Nal][d2Nal])) |
